Measurements taken from US9204653B2, “5-fluoro pyrimidine derivatives” (DOW AGROSCIENCES LLC, priority 2008, dated 2015).
Where two headings read alike, the source gives them in different places.

Columns and labels:
[1] = tested on: Cercospora beticola; Bayer Code CERCBE; assay: Leaf spot of sugar beets; format: in vivo, Cercospora beticola on sugar beets (variety HH-88); details: 24 h, % disease control rating, one day protectant; for pest or weed control at 25 ppm: read-out: CERCBE 1 DP 25 ppm; for pest or weed control at 75 ppm: read-out: CERCBE 1 DP 75 ppm
[2] = tested on: Mycosphaerella graminicola; Anamorph: Septoria tritici; Bayer Code SEPTTR; assay: Leaf blotch of wheat, foliar fungicide treatment, one day protectant (1DP) or three day curative (3DC); format: in vivo, Septoria tritici on wheat plants (variety Yuma); details: Zymoseptoria tritici
[3] = tested on: Venturia inaequalis; Bayer Code VENTIN; assay: Apple scab; format: in vivo; details: 24 h, % disease control rating, one day protectant; for pest or weed control at 25 ppm: read-out: VENTIN 1 DP 25 ppm; for pest or weed control at 75 ppm: read-out: VENTIN 1 DP 75 ppm
[4] = 24 h, one day protectant (1DP), 25 ppm, percent disease control rating, read-out: SETTTR 1DP 25 ppm
[5] = 24 h, one day protectant (1DP), percent disease control rating, read-out: SEPTTR 1DP 100 ppm
[6] = 72 h, three day curative (3DC), 25 ppm, percent disease control rating, read-out: SEPTTR 3DC 25 ppm
[7] = 72 h, three day curative (3DC), percent disease control rating, read-out: SEPTTR 3DC 100 ppm
[8] = 24 h, one day protectant (1DP), 25 ppm, rating of percent disease control, read-out: SETTTR 1DP 25 ppm
[9] = 24 h, one day protectant (1DP), rating of percent disease control, read-out: SEPTTR 1DP 100 ppm
[10] = 72 h, three day curative (3DC), 25 ppm, rating of percent disease control, read-out: SEPTTR 3DC 25 ppm
[11] = 72 h, three day curative (3DC), rating of percent disease control, read-out: SEPTTR 3DC 100 ppm
[12] = 24 h, one day protectant (1DP), 25 ppm (first 1DP column), percent disease control rating, read-out: SETTTR 1DP 25 ppm
[13] = 24 h, one day protectant (1DP), 25 ppm as printed (second 1DP column), percent disease control rating, read-out: SETTTR 1DP 25 ppm

Compound	pest or weed control at 25 ppm [1]	pest or weed control at 75 ppm [1]	pest or weed control at 25 ppm [2, 4]	pest or weed control at 100 ppm [2, 5]	pest or weed control at 25 ppm [2, 6]	pest or weed control at 100 ppm [2, 7]	pest or weed control at 25 ppm [3]	pest or weed control at 75 ppm [3]	pest or weed control at 25 ppm [2, 8]	pest or weed control at 100 ppm [2, 9]	pest or weed control at 25 ppm [2, 10]	pest or weed control at 100 ppm [2, 11]	pest or weed control at 25 ppm [2, 12]	pest or weed control at 25 ppm [2, 13]
Nc1nc(OC(Cc2ccccc2)c2ccc(F)cc2)ncc1F (stereo not shown) [Compound 61]	0 to 25%	0 to 25%	76 to 100%	76 to 100%	0 to 25%	0 to 25%	76 to 100%	51 to 75%						
CCCCCCOc1ncc(F)c(/N=C/N(C)C)n1 [Compound 68]	51 to 75%	51 to 75%	0 to 25%	51 to 75%	0 to 25%	51 to 75%	51 to 75%	76 to 100%						
CN(C)/C=N/c1nc(OCc2ccccc2)ncc1F [Compound 209]							51 to 75%	76 to 100%	76 to 100%	76 to 100%	76 to 100%	76 to 100%		
CCOC(=O)COc1ncc(F)c(N)n1 [Compound 221]	26 to 50%	51 to 75%					0 to 25%	26 to 50%						
Nc1nc(OCc2cccc(F)c2)ncc1F [Compound 236]							76 to 100%	76 to 100%	76 to 100%	76 to 100%	76 to 100%	76 to 100%		
Cc1ccccc1C(C)Oc1ncc(F)c(N)n1 (stereo not shown) [Compound 313]							26 to 50%	51 to 75%	76 to 100%	76 to 100%	76 to 100%	76 to 100%		
Nc1nc(OCc2cc3ccccc3s2)ncc1F [Compound 345]							51 to 75%	76 to 100%	76 to 100%	76 to 100%	76 to 100%	76 to 100%		
Cc1cc(C)c(COc2ncc(F)c(/N=C/N(C)C)n2)c(C)c1 [Compound 347]							76 to 100%	26 to 50%	76 to 100%	76 to 100%	76 to 100%	76 to 100%		
Cc1ccc(COc2ncc(F)c(/N=C/N(C)C)n2)cc1 [Compound 469]							51 to 75%	76 to 100%	76 to 100%	76 to 100%	76 to 100%	76 to 100%		
Cc1cc(C)c(COc2ncc(F)c(N)n2)c(C)c1 [Compound 510]							76 to 100%	76 to 100%	51 to 75%	76 to 100%	51 to 75%	76 to 100%		
COc1ccc(COc2ncc(F)c(N)n2)cc1 [Compound 734]							76 to 100%	76 to 100%	76 to 100%	76 to 100%	76 to 100%	76 to 100%		
CCN(/C=N/c1nc(O)ncc1F)CC [Compound 1131]					76 to 100%	76 to 100%							76 to 100%	76 to 100%
O=S(=O)(Cc1ccccc1)Nc1nc(O)ncc1F [Compound 1132]					76 to 100%	76 to 100%							51 to 75%	51 to 75%
